Five compounds from patent US12281149B2, “Modulators of G-protein coupled receptors” (priority 2021, dated 2025) can be followed below.

*1 amine or outer side, *2 acyl side, *3 side chain or, on linkers, in order; H or OH if unused. Where a SMILES comes first, the peptide text is derived from it. Side-chain parts run from the residue outwards. [ ]: non-standard residue; d: D form. The star is where a group is joined. Isobutyryl(2-(3-CN-5-F-Ph)) = CC(C)(C(=O)*)c1cc(F)cc(C#N)c1; C20 diacid = O=C(O)CCCCCCCCCCCCCCCCCCC(=O)*; αMePhe(2-F) = C[C@](N)(Cc1ccccc1F)C(=O)O; γGlu = O=C(O)[C@H](CCC(=O)[*:2])N[*:1]; X68 = CC(C)[C@@H](CN[*:1])C(=O)[*:2]; X46 = O=C(C1(c2ccccc2)CCOCC1)*; X61 = CC(C)(C(=O)*)c1ccccc1F; X6 = CC(C)(C(=O)*)c1ccccc1; AEEA = NCCOCCOCC(=O)O; Aib = CC(C)(N)C(=O)O; βAla = NCCC(=O)O

Assay type in all cases: cell-based
Test [1] deals with T1, GLP-1 receptor (Homo sapiens, UniProt P43220). Briefly: PathHunter β-arrestin assay, GLP-1 receptor. The arrangement: host or cells: PathHunter CHO-K1 GLP1R β-Arrestin Cell Line. The conditions noted are these: β-arrestin-2 recruitment, PathHunter CHO-K1 GLP1R β-Arrestin Cell Line, 90 min at 37° C.; normalized to GLP-1; read-out: GLP-1R β Arrestin EC50. On the technique in general: Recruitment of arrestin is a read-out of receptor activation apart from second messengers.
T1 sequence (P43220 24-463): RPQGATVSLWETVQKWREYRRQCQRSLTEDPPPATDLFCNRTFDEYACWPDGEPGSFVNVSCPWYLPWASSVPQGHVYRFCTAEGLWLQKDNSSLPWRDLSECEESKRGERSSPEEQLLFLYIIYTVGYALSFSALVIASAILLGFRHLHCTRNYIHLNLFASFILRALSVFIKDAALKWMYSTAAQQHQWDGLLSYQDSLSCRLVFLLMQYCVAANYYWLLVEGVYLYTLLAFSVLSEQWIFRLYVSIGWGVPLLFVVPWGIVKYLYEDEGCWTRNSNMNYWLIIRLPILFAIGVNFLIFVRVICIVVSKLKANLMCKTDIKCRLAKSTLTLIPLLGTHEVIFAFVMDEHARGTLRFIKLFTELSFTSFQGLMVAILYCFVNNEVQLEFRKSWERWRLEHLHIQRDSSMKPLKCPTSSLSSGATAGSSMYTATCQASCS

The target of test [2] is T1, GLP-1 receptor. In words: HitHunter cAMP assay, GLP-1 receptor. The conditions noted are these: for EC50: CHO cells stably expressing human GLP-1 receptor, cAMP accumulation, 30 min, read-out: EC50 GLP-1R; for Emax: CHO cells, cAMP, normalized to maximum signal from GLP-1 (high) and DMSO (low), read-out: Emax GLP-1R. In general terms: cAMP levels reflect the balance of adenylyl cyclase and phosphodiesterase activity.

Test [3] addresses T2, GIP receptor (Homo sapiens, UniProt P48546).
T2 sequence (P48546 22-466): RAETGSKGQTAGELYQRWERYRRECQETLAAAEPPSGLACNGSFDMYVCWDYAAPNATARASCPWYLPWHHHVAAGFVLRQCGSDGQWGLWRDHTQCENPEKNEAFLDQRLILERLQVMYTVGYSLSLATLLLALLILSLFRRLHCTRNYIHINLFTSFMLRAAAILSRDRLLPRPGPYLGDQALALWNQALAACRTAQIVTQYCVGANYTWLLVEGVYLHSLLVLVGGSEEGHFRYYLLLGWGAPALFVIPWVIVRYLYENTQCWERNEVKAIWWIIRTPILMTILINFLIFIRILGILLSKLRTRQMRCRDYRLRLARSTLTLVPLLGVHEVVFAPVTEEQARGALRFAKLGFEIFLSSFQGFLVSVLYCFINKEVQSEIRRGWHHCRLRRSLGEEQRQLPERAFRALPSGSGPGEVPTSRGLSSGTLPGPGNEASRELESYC
Briefly: HitHunter cAMP assay, GIP receptor. The note with it: for EC50: CHO cells stably expressing GIP receptor, cAMP accumulation, 30 min, read-out: EC50 GIP-1R; for Emax: CHO cells, cAMP, normalized to maximum signal from GIP (high) and DMSO (low), read-out: Emax GIP-1R.

Test [4] addresses T2, GIP receptor. Briefly: PathHunter β-arrestin assay, GIP receptor. The note with it: β-arrestin-2 recruitment, PathHunter CHO-K1 GIPR β-Arrestin Cell Line, 90 min at 37° C.; normalized to GIP; read-out: GIPR β Arrestin EC50. More on the design: host or cells: PathHunter CHO-K1 GIPR β-Arrestin Cell Line.

Broadly, the EC50 is the midpoint of the concentration-response curve. As a reminder, the Emax is the size of the effect at its maximum, as opposed to the concentration needed.

`CC[C@H](C)[C@H](NC(=O)[C@H](CC(C)C)NC(=O)[C@H](Cc1c[nH]c2ccccc12)NC(=O)[C@H](CCC(N)=O)NC(=O)[C@@H](NC(=O)[C@H](Cc1ccccc1)NC(=O)[C@H](C)NC(=O)[C@H](CCCCNC(=O)COCCOCCNC(=O)COCCOCCNC(=O)CC[C@H](NC(=O)CCCCCCCCCCCCCCCCCCC(=O)O)C(=O)O)NC(=O)[C@H](CCC(N)=O)NC(=O)[C@H](C)NC(=O)[C@@H](NC(=O)[C@H](CCCCN)NC(=O)[C@H](CC(=O)O)NC(=O)[C@H](CC(C)C)NC(=O)C(C)(C)NC(=O)[C@@H](NC(=O)[C@H](CO)NC(=O)[C@H](Cc1ccc(O)cc1)NC(=O)[C@H](CC(=O)O)NC(=O)[C@H](CO)NC(=O)[C@@H](NC(=O)[C@](C)(Cc1ccccc1F)NC(=O)[C@@H](NC(=O)CNC(=O)[C@H](CCC(=O)O)NC(=O)CCNC(=O)C1(c2ccccc2)CCOCC1)[C@@H](C)O)[C@@H](C)O)[C@@H](C)CC)[C@@H](C)CC)C(C)C)C(=O)N[C@@H](C)C(=O)NCC(=O)NCC(=O)N1CCC[C@H]1C(=O)N[C@@H](CO)C(=O)N[C@@H](CO)C(=O)NCC(=O)N[C@@H](C)C(=O)N1CCC[C@H]1C(=O)N1CCC[C@H]1C(=O)N1CCC[C@H]1C(=O)N[C@@H](CO)C(N)=O` [Compound 178] ({X46-βAla}-EGT[αMePhe(2-F)]TSDYSI[Aib]LDKIAQK([AEEA-AEEA-γGlu-C20 diacid])AFVQWLIAGGPSSGAPPPS-NH2): the EC50 on GLP-1 receptor [1] was > 1000 nM; on GLP-1 receptor [2], 0.1 to 1 nM; at GIP receptor [3], 0.1 to 1 nM; on GIP receptor [4], < 1000 nM. The results for the maximal response (Emax) at GLP-1 receptor [2] and on GIP receptor [3] were 98% and 105%, respectively.
On to `CC[C@H](C)[C@H](NC(=O)[C@H](CC(C)C)NC(=O)[C@H](Cc1c[nH]c2ccccc12)NC(=O)[C@H](CCC(N)=O)NC(=O)[C@@H](NC(=O)[C@H](Cc1ccccc1)NC(=O)[C@H](C)NC(=O)[C@H](CCCCNC(=O)COCCOCCNC(=O)COCCOCCNC(=O)CC[C@H](NC(=O)CCCCCCCCCCCCCCCCCCC(=O)O)C(=O)O)NC(=O)[C@H](CCC(N)=O)NC(=O)[C@H](C)NC(=O)[C@@H](NC(=O)[C@H](CCCCN)NC(=O)[C@H](CC(=O)O)NC(=O)[C@H](CC(C)C)NC(=O)C(C)(C)NC(=O)[C@@H](NC(=O)[C@H](CO)NC(=O)[C@H](Cc1ccc(O)cc1)NC(=O)[C@H](CC(=O)O)NC(=O)[C@H](CO)NC(=O)[C@@H](NC(=O)[C@H](Cc1ccccc1)NC(=O)[C@@H](NC(=O)CNC(=O)[C@H](CCC(=O)O)NC(=O)CCNC(=O)C(C)(C)c1ccccc1)[C@@H](C)O)[C@@H](C)O)[C@@H](C)CC)[C@@H](C)CC)C(C)C)C(=O)N[C@@H](C)C(=O)NCC(=O)NCC(=O)N1CCC[C@H]1C(=O)N[C@@H](CO)C(=O)N[C@@H](CO)C(=O)NCC(=O)N[C@@H](C)C(=O)N1CCC[C@H]1C(=O)N1CCC[C@H]1C(=O)N1CCC[C@H]1C(=O)N[C@@H](CO)C(N)=O` [Compound 241] ({X6-βAla}-EGTFTSDYSI[Aib]LDKIAQK([AEEA-AEEA-γGlu-C20 diacid])AFVQWLIAGGPSSGAPPPS-NH2), for which the EC50 was < 1000 nM on GLP-1 receptor [1], 0.1 to 1 nM on GLP-1 receptor [2], 1 to 10 nM on GIP receptor [3] and < 1000 nM at GIP receptor [4]. In addition, the Emax was determined as 95% on GLP-1 receptor [2] and 100% at GIP receptor [3].
`CC[C@H](C)[C@H](NC(=O)[C@H](CC(C)C)NC(=O)[C@H](Cc1c[nH]c2ccccc12)NC(=O)[C@H](CCC(N)=O)NC(=O)[C@@H](NC(=O)[C@H](Cc1ccccc1)NC(=O)[C@H](C)NC(=O)[C@H](CCCCNC(=O)COCCOCCNC(=O)COCCOCCNC(=O)CC[C@H](NC(=O)CCCCCCCCCCCCCCCCCCC(=O)O)C(=O)O)NC(=O)[C@H](CCC(N)=O)NC(=O)[C@H](C)NC(=O)[C@@H](NC(=O)[C@H](CCCCN)NC(=O)[C@H](CC(=O)O)NC(=O)[C@H](CC(C)C)NC(=O)C(C)(C)NC(=O)[C@@H](NC(=O)[C@H](CO)NC(=O)[C@H](Cc1ccc(O)cc1)NC(=O)[C@H](CC(=O)O)NC(=O)[C@H](CO)NC(=O)[C@@H](NC(=O)[C@H](Cc1ccccc1)NC(=O)[C@@H](NC(=O)CNC(=O)[C@H](CCC(=O)O)NC(=O)[C@H](CNC(=O)C(C)(C)c1cc(F)cc(C#N)c1)C(C)C)[C@@H](C)O)[C@@H](C)O)[C@@H](C)CC)[C@@H](C)CC)C(C)C)C(=O)N[C@@H](C)C(=O)NCC(=O)NCC(=O)N1CCC[C@H]1C(=O)N[C@@H](CO)C(=O)N[C@@H](CO)C(=O)NCC(=O)N[C@@H](C)C(=O)N1CCC[C@H]1C(=O)N1CCC[C@H]1C(=O)N1CCC[C@H]1C(=O)N[C@@H](CO)C(N)=O` [Compound 171] ({Isobutyryl(2-(3-CN-5-F-Ph))}-[X68]EGTFTSDYSI[Aib]LDKIAQK([AEEA-AEEA-γGlu-C20 diacid])AFVQWLIAGGPSSGAPPPS-NH2): the EC50 on GLP-1 receptor [1] is > 1000 nM; on GLP-1 receptor [2], 10 to 100 nM; on GIP receptor [3], 100 to 1000 nM; on GIP receptor [4], > 1000 nM. The Emax at GLP-1 receptor [2] stood at 109%; on GIP receptor [3], 94%.
For `CC[C@H](C)[C@H](NC(=O)[C@H](CC(C)C)NC(=O)[C@H](Cc1c[nH]c2ccccc12)NC(=O)[C@H](CCC(N)=O)NC(=O)[C@@H](NC(=O)[C@H](Cc1ccccc1)NC(=O)[C@H](C)NC(=O)[C@H](CCCCNC(=O)COCCOCCNC(=O)COCCOCCNC(=O)CC[C@H](NC(=O)CCCCCCCCCCCCCCCCCCC(=O)O)C(=O)O)NC(=O)[C@H](CCC(N)=O)NC(=O)[C@H](C)NC(=O)[C@@H](NC(=O)[C@H](CCCCN)NC(=O)[C@H](CC(=O)O)NC(=O)[C@H](CC(C)C)NC(=O)C(C)(C)NC(=O)[C@@H](NC(=O)[C@H](CO)NC(=O)[C@H](Cc1ccc(O)cc1)NC(=O)[C@H](CC(=O)O)NC(=O)[C@H](CO)NC(=O)[C@@H](NC(=O)[C@H](Cc1ccccc1)NC(=O)[C@@H](NC(=O)CNC(=O)[C@H](CCC(=O)O)NC(=O)CCNC(=O)C(C)(C)c1ccccc1F)[C@@H](C)O)[C@@H](C)O)[C@@H](C)CC)[C@@H](C)CC)C(C)C)C(=O)N[C@@H](C)C(=O)NCC(=O)NCC(=O)N1CCC[C@H]1C(=O)N[C@@H](CO)C(=O)N[C@@H](CO)C(=O)NCC(=O)N[C@@H](C)C(=O)N1CCC[C@H]1C(=O)N1CCC[C@H]1C(=O)N1CCC[C@H]1C(=O)N[C@@H](CO)C(N)=O` [Compound 198] ({X61-βAla}-EGTFTSDYSI[Aib]LDKIAQK([AEEA-AEEA-γGlu-C20 diacid])AFVQWLIAGGPSSGAPPPS-NH2), the EC50 at GLP-1 receptor [1] was > 1000 nM; on GLP-1 receptor [2], 0.1 to 1 nM; at GIP receptor [3], 1 to 10 nM; at GIP receptor [4] it was < 1000 nM. Moreover, the Emax is 99% at GLP-1 receptor [2] and 102% at GIP receptor [3].
Turning to `CC[C@H](C)[C@H](NC(=O)[C@H](CC(C)C)NC(=O)[C@H](Cc1c[nH]c2ccccc12)NC(=O)[C@H](CCC(N)=O)NC(=O)[C@@H](NC(=O)[C@H](Cc1ccccc1)NC(=O)[C@H](C)NC(=O)[C@H](CCCCNC(=O)COCCOCCNC(=O)COCCOCCNC(=O)CC[C@H](NC(=O)CCCCCCCCCCCCCCCCCCC(=O)O)C(=O)O)NC(=O)[C@H](CCC(N)=O)NC(=O)[C@H](C)NC(=O)[C@H](CCC(N)=O)NC(=O)[C@H](CCCCN)NC(=O)[C@H](CC(=O)O)NC(=O)[C@H](CC(C)C)NC(=O)C(C)(C)NC(=O)[C@@H](NC(=O)[C@H](CO)NC(=O)[C@H](Cc1ccc(O)cc1)NC(=O)[C@H](CC(=O)O)NC(=O)[C@H](CO)NC(=O)[C@@H](NC(=O)[C@H](Cc1ccccc1)NC(=O)[C@@H](NC(=O)CNC(=O)[C@H](CCC(=O)O)NC(=O)CCNC(=O)C(C)(C)c1cc(F)cc(C#N)c1)[C@@H](C)O)[C@@H](C)O)[C@@H](C)CC)C(C)C)C(=O)N[C@@H](C)C(=O)NCC(=O)NCC(=O)N1CCC[C@H]1C(=O)N[C@@H](CO)C(=O)N[C@@H](CO)C(=O)NCC(=O)N[C@@H](C)C(=O)N1CCC[C@H]1C(=O)N1CCC[C@H]1C(=O)N1CCC[C@H]1C(=O)N[C@@H](CO)C(N)=O` [Compound 186] ({Isobutyryl(2-(3-CN-5-F-Ph))-βAla}-EGTFTSDYSI[Aib]LDKQAQK([AEEA-AEEA-γGlu-C20 diacid])AFVQWLIAGGPSSGAPPPS-NH2), the EC50 at GLP-1 receptor [1] was > 1000 nM; at GLP-1 receptor [2] it was 0.1 to 1 nM; on GIP receptor [3], 10 to 100 nM; on GIP receptor [4], > 1000 nM. The maximum response (Emax) at GLP-1 receptor [2] was determined as 99%; on GIP receptor [3], 100%.
